Reference: patent US5709816A, “Singlet oxygen quenchers and external compositions containing the same” (Kao Corporation, priority 1899, dated 1998)

Legend:
[1] = system: sunburn cells in skin of ICR/HR mice; experiment: Inhibition of sunburn cell formation (UV-B irradiation); type: in vivo; details: Mus musculus, light or radiation study, topical; 1 wt. % in ethanol; UV-B 100 mJ/cm^2; 24 hours later; read-out: Inhibition ratio regarding sunburn cell formation
Source text: Inhibition of sunburn cell formation
Ethanol solution of a test substance (1 wt. %) was applied onto the skin of ICR/HR mice. UV-B (100 mJ/cm^2) was irradiated onto the skin (health lamp SE20/SLE, Toshiba). Twenty-four hours later, the skin was biopsied and stained using hematoxylin & eosin, after which the number of sunburn cells were counted under microscope.

[2] = system: dopachrome formation from dopa; experiment: Inhibition of immediate pigment darkening (dopachrome formation from dopa, porphyrin + UV); type: biochemical; details: 0.5 wt. % in ethanol; dopa 1 mM, porphyrin 5 mM; UV-A/UV-B 3 J/cm^2; absorption at 475 nm
Method: Inhibition of immediate pigment darkening
An ethanol solution containing a test substance (0.5 wt. %) was added to a mixture of dopa (1 mM) and porphyrin (5 mM). A mixture of UV-A/UV-B (3 J/cm^2, measured at 365 nm) was irradiated onto the resultant mixture using a solar simulator. The amount of dopachrome formed by irradiation was determined by measuring absorption at 475 nm.

[3] = Quenching rate constant of singlet oxygen (Rose Bengal photosensitization, Stern-Volmer method); type: biochemical; details: kq; ethanol solution, 50 μM Rose Bengal; singlet oxygen lifetime taken as 10 μs
Source text: Method for measuring the quenching rate constant of singlet oxygen:
The apparatus used for measuring singlet oxygen included the following parts.
(1) Light source: Xenon lamp (150 W) (Atago Bussan K.K.)
(2) Filters on the excitation side: Water filter (optical path: 50 mm), Color glass filters (HA-15, HA-30, G-533, manufactured by Hoya K.K.)
(3) Sample: Square quartz cell (2×10×50 mm)
(4) Filters on the detection side: Color glass filter (IR-85, manufactured by Hoya K.K.), Interference filter (Nippon Shinku-Kogaku K.K.)
(5) Spectrometer and detector: Spectrometer (HR-320, Jovin Yvon Co.), Germanium (Ge) detector (EO-817L, a type using liquid nitrogen as a coolant, North coast Scientic Corporation)
(6) Amplifier: Light chopper (5584, NF Co.), Frequency filter (E-3201B, NF Co.), Super low noise amplifier (SA-200F3, NF Co.), Digital storage oscilloscope (2431L, SONY Tektronix Co.)
(7) Recording section: Personal computer (PC-9801 BA, NEC Corporation), GP-IB interface
(8) Oxygen concentration control unit: High-pressure oxygen cylinder
Using this apparatus, light was irradiated onto a system which is known to produce singlet oxygen through photochemical sensitization. The wavelength of the light was within an appropriate absorption range of the photosensitizer employed. weak emission in the near infrared region, which is specific to singlet oxygen, was measured for its intensity I. Subsequently, the emission obtained when a test substance was added to the same system was measured. From the decrease in emission intensity I, the quenching rate constant of singlet oxygen of the test substance could be measured in accordance with the Stern-Volmer method. However, since some substances react with the photochemical sensitization system to cause errors in the measurements, the method described by R. H. Young et al., Photochem. Photobiol., vol. 17, p. 233 (1973) was applied to correct this contribution quenching.
A 50 μM ethanol solution of Rose Bengal in a 400 μl square quartz cell was used as a test substance.
First, the light within 490-590 nm, which is appropriate for the maximum absorption wavelength of Rose Bengal, was irradiated onto the cell containing the test substance.
Similarly, another system was subjected to measurement in which a typical singlet oxygen quencher, β-carotene, sodium azide,or 1,4-diazabicyclo[2.2.2]octane, had been added.
Measurement of the quenching rate constant of singlet oxygen: An ethanol solution of each of compounds obtained in the above-described Synthesis Examples and N-phenyldiethanolamine (compound (36)), with Rose Bengal, as a conventional photosensitizer, was used for the measurement of the quenching rate constants of singlet oxygen.
First, emission intensity I of a mixture solution containing 50 μM of Rose Bengal and the above compounds were measured under saturated air conditions. The ratio IOair /Iair was calculated, wherein Iair represents the emission intensity measured for a solution with a test substance at a concentration of Cq (Iair), and Oair represents the emission intensity measured for a solution without test substance. Next, under saturated oxygen conditions, emission intensity was measured for a solution with a test substance at the same concentration Cq (I302). Using these emission intensities, the correction term Fair was obtained in accordance with the following equation.
Interference attributed to the test substance with respect to the photosensitization reaction system was corrected by multiplying IOair /Iair by Fair.
Using the following equation:
(IOair /Iair)'=1+kq ·.tau.·Cq

[4] = system: skin of ICR/HR mice; experiment: Inhibition of wrinkle formation in the skin of mice (UV-B, 16 weeks); type: in vivo, ICR/HR mouse; details: Mus musculus, topical, 2688 h; 1 wt. % in ethanol; 1 MED UV-B five times per week over sixteen weeks
Source text: Inhibition of wrinkle formation in the skin of mice
To the back of each ICR/HR mouse (female, 6 weeks old), an ethanol solution containing a test substance (1 wt. %) was applied. One (1) MED of UV-B was irradiated thereto using a health lamp SL20-SLE (Toshiba). Irradiation was repeated five times per week over sixteen weeks. Wrinkle formation was visually scored using the following five rankings.
1: Mild and questionable wrinkles are observed
2: Mild but clear and definite wrinkles are observed
3: Moderate wrinkles are observed
4: Severe wrinkles are observed
Using the above rankings, wrinkle formations were scored and the inhibition ratios were determined by the division by the blank score.

[5] = system: E. coli vector pUC119 DNA; type: biochemical; details: 0.01 wt. % in ethanol; 100 mM porphyrin; UV-A/UV-B 3 J/cm^2; agarose gel electrophoresis
Method: To a mixture of […] E. coli vector pUC119 DNA and 100 mM porphyrin, an ethanol solution containing a test substance (0.01 wt. %) was added. A mixture of UV-A/UV-B (3 J/cm^2, measured at 365 nm) was irradiated onto the resultant DNA mixture using a solar simulator. A 2.5-fold amount of ethanol and a 0.1-fold amount of 5M sodium acetate were added and the DNA was precipitated. The DNA pellet was dissolved in a TE buffer, and analyzed through agarose gel electrophoresis. Inhibition of DNA single strand breaks formation was measured.

[6] = system: skin of white guinea pigs; experiment: Inhibition of erythema formation (UV-A/UV-B irradiation); type: in vivo; details: Cavia porcellus, light or radiation study, topical; 5 wt. % in ethanol; UV-A/UV-B 40 J/cm^2; determined after 1 day and 2 days; read-out: Erythema inhibition rate
Source text: Inhibition of erythema formation
The hair of white guinea pigs (8 weeks old, female) hair was removed by shaving, and an ethanol solution containing a test substance (5 wt. %) was applied to the shaved part of each animal. A mixture of UV-A/UV-B (40 J/cm^2, measured at 365 nm using a UV-radiometer UVR-305/365-D, Torex Co.) was irradiated onto the back of each guinea pig using a solar simulator Model 1600 (Solar Light Co.). After 1 day and 2 days of irradiation, the erythema formation was visually determined by the standards of the Japanese Dermatological Association to obtain erythema inhibition ratios.

| Structure (SMILES) | inhibition in vivo at 1 % [1] [%] | Inhibition ratio regarding immediate blackening [2] [%] | Extinction rate constant of singlet oxygen [3] [M⁻¹ s⁻¹] | inhibition in vivo at 1 % [4] [%] | Prevention of DNA damage [5] [%] | inhibition in vivo at 5 % [6] [%] |
| --- | --- | --- | --- | --- | --- | --- |
| COCC(O)CN(C)c1ccc(OC)cc1 (stereo not drawn) [Compound (1), N-(2-hydroxy-3-methoxypropyl)-N-methyl-p-anisidine] | 79 | 71 | 2.2e+08 | 47 | 69 | 68 |
| CCCCCCCCN(CC(O)COC)c1ccc(OC)cc1 (stereo not drawn) [Compound (3), N-(2-hydroxy-3-methoxypropyl)-N-n-octyl-p-anisidine] | 86 | 83 | 2.3e+08 | 58 | 71 | 71 |
| Cc1ccc(N(C)CC(O)CO)cc1 (stereo not drawn) [Compound (33), N-(2,3-dihydroxypropyl)-N-methyl-p-toluidine] | 54 | 67 | 1.4e+08 | 35 | 48 | 43 |
| CCCCN(CC(O)COC)c1ccc(C)c(C)c1 (stereo not drawn) [Compound (32), N-n-butyl-N-(2-hydroxy-3-methoxypropyl)-3,4-xylidine] | 61 | 56 | 1.6e+08 | 43 | 61 | 53 |
| CCCCN(CC(O)COC)c1ccc(C)cc1 (stereo not drawn) [Compound (5), N-n-butyl-N-(2-hydroxy-3-methoxypropyl)-p-toluidine] | 65 | 65 | 1.5e+08 | 43 | 66 | 65 |
| CCCCN(CC(O)COC)c1ccc(OC)cc1 (stereo not drawn) [Compound (2), N-n-butyl-N-(2-hydroxy-3-methoxypropyl)-p-anisidine] | 53 | 57 | 2e+08 | 38 | 50 | 42 |
| CCCCN(CC(O)COC)c1ccccc1 (stereo not drawn) [Compound (6), N-n-butyl-N-(2-hydroxy-3-methoxypropyl)aniline] | 46 | 53 | 1.1e+08 | 36 | 47 | 37 |
| COCC(O)CN(CC(O)COC)c1ccc(C)cc1 (stereo not drawn) [Compound (4), N,N-bis(2-hydroxy-3-methoxypropyl)-p-toluidine] | 81 | 76 | 2.1e+08 | 51 | 69 | 69 |
| CCCCCCCCN(CC(O)CO)c1ccc(OC)cc1 (stereo not drawn) [Compound (35), N-(2,3-dihydroxypropyl)-N-octyl-p-anisidine] | 81 | 78 | 2.2e+08 | 42 | 79 | 78 |
| CCCCN(CC(O)CO)c1ccc(C)c(C)c1 (stereo not drawn) [Compound (34), N-n-butyl-N-(2,3-dihydroxypropyl)-3,4-xylidine] | 64 | 63 | 1.7e+08 | 43 | 64 | 65 |
